Assay [1] addresses D2 and D3 receptor (rat striatal homogenates). Put plainly: D2 and D3 receptor binding activity: displacement of 3H-raclopride in rat striatal homogenates. More on the design: species or system adult male Sprague Dawley rats. The settings on record: 0.5 nM 3H-raclopride, nonspecific binding 10^-4M dopamine. As to the method:
Assay for D2 and D3 Receptor Binding Activity Striatial tissue is dissected from adult male Sprague Dawley rats or BHK 293 cells are harvested containing recombinantly produced D2 or D3 receptors. The sample is homogenized in 100 volumes (w/vol) of 0.05M Tris HCl buffer at 4° C. and pH 7.4. The sample is then centrifuged at 30,000×g and resuspended and rehomogenized. The sample is then centrifuged as described and the final tissue sample is frozen until use. The tissue is resuspended 1:20 (wt/vol) in 0.05M Tris HCl buffer containing 100 mM NaCl. […] The binding characteristics of examples of this patent are shown in Table 1 for Rat Striatal Homogenates.

In assay [2] the target is T1, human dopamine D4 receptor subtype (Homo sapiens, UniProt P21917).
T1 construct: expressed in transfected cells
T1 sequence (P21917 1-419): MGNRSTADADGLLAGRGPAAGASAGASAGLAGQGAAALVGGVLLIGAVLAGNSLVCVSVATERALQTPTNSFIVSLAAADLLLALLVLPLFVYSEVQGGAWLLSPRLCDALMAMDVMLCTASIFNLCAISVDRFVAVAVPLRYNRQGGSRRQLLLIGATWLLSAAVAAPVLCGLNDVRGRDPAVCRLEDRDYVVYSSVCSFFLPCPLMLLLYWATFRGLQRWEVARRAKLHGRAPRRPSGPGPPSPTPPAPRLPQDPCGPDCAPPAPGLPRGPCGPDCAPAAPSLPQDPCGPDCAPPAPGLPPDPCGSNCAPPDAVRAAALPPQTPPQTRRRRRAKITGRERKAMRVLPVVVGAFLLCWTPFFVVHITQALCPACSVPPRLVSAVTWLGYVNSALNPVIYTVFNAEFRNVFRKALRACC
In words: D4 receptor binding activity: displacement of [3H] YM-09151-2. The settings on record: 0.1 nM [3H] YM-09151-2; 60 minutes at 25° C.; clonal cell lines expressing human D4. The procedure:
Assay for D4 Receptor Binding Activity
Clonal cell lines expressing the human dopamine D4 receptor subtype were harvested in PBS and the cells centrifuged and the pellets stored at -80° C. until used in the binding assay. The pellets were resuspended and the cells lysed at 4° C. in 50 mM Tris pH 7.4 buffer containing 120 mM NaCl, 2 mM EDTA and 5 mM mMgCl2. The homogenate is centrifuged at 48000×g for 10 minutes at 4° C. The resulting pellet is resuspended in fresh buffer and centrifuged again. After resuspension of the pellet in fresh buffer at 100 ul aliquot removed for the protein determination. The remaining homogenate is centrifuged as above, the supernatant removed and the pellet stored at 4° C. until needed at which time it is resuspended to a final concentration of 625 ug/ml (250 ug per sample) with 50 mM Tris buffer (pH 7.4) and 120 mM NaCl just prior to use. Incubations were carried out for 60 minutes at 25° C. in the presence of 0.1 nM [^3 H] YM-09151-2. The incubation was terminated by rapid filtration through Whatman GF/C filters and rinsed with 2×4 ml washes of chilled 50 mM Tris (pH 7.4) and 120 mM NaCl. Nonspecific binding was determined with 1 uM spiperone and radioactivity determined by counting in an LKB beta counter. Binding parameters were determined by non-linear least squares regression analysis, from which the inhibition constant Ki could be calculated for each test compound. The binding characteristics of some examples of this patent are shown in Table 2 for the dopamine D4 binding assay. […] YM-09151-2 from the human dopamine D4 receptor subtype of below […].

Where a name gives a salt, the structure may show the parent alone.

The results in this text go back to patent US5750700A, “Certain 1-substituted aminomethyl imidazole and pyrrole derivatives: novel dopamine receptor subtype specific ligands” (Neurogen Corporation, priority 1995, dated 1998).

In assay [1], `c1ccc(CC2CCN(Cc3cn(-c4ccccc4)cn3)CC2)cc1` [Compound 1, 1-phenyl-4[(4-benzyl-piperidin-1-yl)-methyl]imidazole] showed an IC50 of 142 nM. In assay [2], this molecule returned a Ki of 3 nM.
As to `c1ccc(C2CCN(Cc3cn(-c4ccccc4)cn3)CC2)cc1` [Compound 2, 1-Phenyl-4[(4-phenyl-piperidin-1-yl)methyl]imidazole dihydrochloride], in assay [1], the IC50 stood at 3 nM. This molecule also came in with a Ki in assay [2] of 10 nM.
In assay [1], `c1ccc(N2CCN(Cc3cn(-c4ccccc4)cn3)CC2)cc1` [Compound 3, 1-Phenyl-4[(4-phenyl-piperazin-1-yl)methyl]imidazole dihydrochloride] gave an IC50 of 6 nM. The molecule further displayed a Ki in assay [2] of 2 nM.
For `Fc1ccc(N2CCN(Cc3cn(-c4ccccc4)cn3)CC2)cc1` [Compound 6, 1-Phenyl-4[(4-(4-fluorophenyl)-piperazin-1-yl)methyl]imidazole dihydrochloride] the same measures were 194 nM and 3 nM.
